According to patent US4508645A, “Analogs of neurohypophysial hormones with inhibition effects” (Ceskoslovenska akademie ved, priority 1982, dated 1985):

How the values were obtained:
uterus in situ = experiment: uterotonic efficiency in situ, inhibition activity pA2; format: in vivo; conditions: pA2, negative logarithm of inhibitor constant; decimal commas
Source text: (§1) Certain biological effects of the analogs of oxytocin and vasopressin are set forth in Table I. The inhibition effects of compounds in an in vitro test are expressed as values of pA2, which is the negative logarithm of the molar concentration of inhibitor. This reduces the response of 2X units of an agonistic compound to be equal to the response of 1X units in the absence of inhibitor (Schild, Brit. J. Pharmacol. 2, 189, 1947; Dyckes et al, J. Med. Chem. 17, 160, 1974). In an […] test (uterus in vitro), the value of pA2 corresponds with the negative logarithm of an inhibitor constant according to the relationship [formula] wherein B is the concentration of inhibitor (M), A50 is the concentration of agonistic compound leading to 50% of the maximum effect, and A50B is the concentration of agonistic compound leading to 50% of the maximum effect in the presence of inhibitor B (Eggena et al, J. Gen. Physiol. 52, 465, 1968).

uterus in vitro = experiment: uterotonic efficiency in vitro, inhibition activity pA2; format: cell-based; conditions: pA2, negative logarithm of molar inhibitor concentration; decimal commas
Source text: as §1

pressor = pressor efficiency, inhibition activity pA2; format: in vivo; conditions: decimal commas
Source text: as §1

galactogogic = galactogogic efficiency, inhibition activity pA2; format: in vivo; conditions: for Inhibition activity pA2 in the determination of efficiency galactogogic: decimal commas
Source text: as §1

Row | Compound | Inhibition activity pA2 in the determination of efficiency uterotonic in situ (uterus in situ) | Inhibition activity pA2 in the determination of efficiency uterotonic in vitro (uterus in vitro) | Inhibition activity pA2 in the determination of efficiency pressor (pressor) | Inhibition activity pA2 in the determination of efficiency galactogogic (galactogogic) | galactogogic agonistic activity (galactogogic; footnote b: agonistic activity, not pA2)
1 | CC1(C)SSC[C@H](N)C(=O)N[C@@H](Cc2ccc(O)cc2)C(=O)N[C@@H](Cc2ccccc2)C(=O)N[C@@H](CCC(N)=O)C(=O)N[C@@H](CC(N)=O)C(=O)N[C@@H]1C(=O)N1CCC[C@H]1C(=O)N[C@@H](CCCCN)C(=O)NCC(N)=O [Ih, [6-Penicilamine, 8-lysine]vasopressin] | 6,16 | 6,00 | 6,73 |  | 
2 | CC[C@H](C)[C@@H]1NC(=O)[C@H](Cc2ccc(O)cc2)NC(=O)[C@@H](NC(C)=O)C(C)(C)SSC[C@@H](C(=O)N2CCC[C@H]2C(=O)N[C@@H](CC(C)C)C(=O)NCC(N)=O)NC(=O)[C@H](CC(N)=O)NC(=O)[C@H](CCC(N)=O)NC1=O [Ia, [1-N-acetylpenicilamine]oxytocin] |  | 4,4 | ineffective |  | 
3 | COc1ccc(C[C@@H]2NC(=O)[C@@H](N)C(C)(C)SSC[C@@H](C(=O)N3CCC[C@H]3C(=O)N[C@@H](CCCCN)C(=O)NCC(N)=O)NC(=O)[C@H](CC(N)=O)NC(=O)[C@H](CCC(N)=O)NC(=O)[C@H](Cc3ccccc3)NC2=O)cc1 [If, [1-Penicilamine, 2-O-methyltyrosine, 8-lysine]vasopressin] | 6,9 | 8,1 | 7,4 | 6,8 | 
4 | [1-Penicilamine, 2-O-methyltyrosine]oxytocin [Ib] | 6,9 | 8,0 | 7,2 | 6,8 | 
5 | COc1ccc(C[C@@H]2NC(=O)[C@@H](NC(C)=O)C(C)(C)SSC[C@@H](C(=O)N3CCC[C@H]3C(=O)N[C@@H](CCCCN)C(=O)NCC(N)=O)NC(=O)[C@H](CC(N)=O)NC(=O)[C@H](CCC(N)=O)NC(=O)[C@H](Cc3ccccc3)NC2=O)cc1 [Ig, [1-N-acetylpenicilamine, 2-O-methyltyrosine, 8-lysine]vasopressin] |  |  | 6,7 | ineffective | 
6 | CC[C@H](C)[C@@H]1NC(=O)[C@H](Cc2ccc(OC)cc2)NC(=O)[C@@H](NC(C)=O)C(C)(C)SSC[C@@H](C(=O)N2CCC[C@H]2C(=O)N[C@@H](CC(C)C)C(=O)NCC(N)=O)NC(=O)[C@H](CC(N)=O)NC(=O)[C@H](CCC(N)=O)NC1=O [Ic, [1-N-acetylpenicilamine, 2-O-methyltyrosine]oxytocin] |  | 5,4 | 6,4 |  | 0,45 I.U./mg
7 | CC(=O)N[C@@H]1C(=O)N[C@@H](Cc2ccc(O)cc2)C(=O)N[C@@H](Cc2ccccc2)C(=O)N[C@@H](CCC(N)=O)C(=O)N[C@@H](CC(N)=O)C(=O)N[C@H](C(=O)N2CCC[C@H]2C(=O)N[C@@H](CCCCN)C(=O)NCC(N)=O)CSSC1(C)C [Ie, [1-N-Actylpenicilamine, 8-lysine]vasopressin] | 6,3 | 5,5 | ineffective | ineffective | 
8 | CC1(C)SSC[C@@H](C(=O)N2CCC[C@H]2C(=O)N[C@@H](CCCCN)C(=O)NCC(N)=O)NC(=O)[C@H](CC(N)=O)NC(=O)[C@H](CCC(N)=O)NC(=O)[C@H](Cc2ccccc2)NC(=O)[C@H](Cc2ccc(O)cc2)NC(=O)[C@H]1N [Id, [1-Penicilamine, 8-lysine]vasopressin] | 6,3 | 6,6 | 6,9 |  | 
9 | CC1(C)SSC(C)(C)[C@@H](C(=O)N2CCC[C@H]2C(=O)N[C@@H](CCCCN)C(=O)NCC(N)=O)NC(=O)[C@H](CC(N)=O)NC(=O)[C@H](CCC(N)=O)NC(=O)[C@H](Cc2ccccc2)NC(=O)[C@H](Cc2ccc(O)cc2)NC(=O)[C@H]1N [Ii, [1-Penicilamine, 6-penicilamine, 8-lysine]vasopressin] | 6,80 | 6,80 | 7,18 |  | 
